# Reference: article PMC12525650, “Pharmacokinetic Profile of Extracts from the Chayote (Sechium edule) H387 07 Hybrid and Phytochemical Characterization of Its Segregant H387 M16 for Potential Therapeutic Applications” (Molecules, 2025)
# Read-outs that look alike come from different tables or passages of the source.
# Experiments:
# [1] = cited from earlier work
# in vivo = test: in vivo; set-up: species or system female CD-1 mice (Mus musculus L.)
# Protocol: Pharmacokinetic parameters were evaluated in female CD-1 mice (Mus musculus L.) provided by the vivarium of the Faculty of Higher Studies, Zaragoza, National Autonomous University of Mexico. All mice were clinically healthy, approximately 12 weeks old, and weighed ~30 g. […] Female mice were selected as the available cohort from the institutional vivarium, and their use allowed us to establish baseline pharmacokinetic parameters under standardized conditions. […] Animals were randomly assigned to treatment groups. Treatment allocation and sample collection were blinded. All experimental procedures were approved by the Research Ethics Committee of the Faculty of Higher Studies, Zaragoza (FESZ/CEI/1/1/5/27/23).
# For the HPLC quantification of metabolites, concentrations were expressed as µg/mL for serum and urine and as µg/mg of tissue for liver samples. The results were translated into graphical form using the identified metabolites. The Cmax and time to reach maximum concentration (Tmax) of the secondary metabolites were obtained directly from the concentration–time curve.
# The area under the plasma concentration–time curve from time zero to the last measurable concentration ( AUC0−t ) was calculated using the linear trapezoidal rule, according to the following formula: AUC0−t=∑i=1n−1Ci+Ci+1/2×ti+1−ti where Ci and Ci+1 are the plasma concentrations at consecutive time points ti and ti+1 . The total area under the curve ( AUC0−∞ ) was obtained as the sum of AUC0−t and the extrapolated area from the last measurable concentration to infinity, calculated as:(1) AUC0−∞=AUC0−t+Clast/kel where Clast is the final observed concentration and kel is the terminal final elimination constant estimated from the slope of the log-linear portion of the concentration–time curve.
# [2] = cited from earlier work; remark: listed apart in the source
# [3] = female, CD-1, mouse, in vivo, po, 8 mg/kg
# [4] = mice, serum, oral extract 8, 125, 250 mg/kg, 1, 6, 24, 48 h
# [5] = mice, liver, oral extract 8, 125, 250 mg/kg, 1, 6, 24, 48 h
# [6] = mice, plasma, oral extract 8 mg/kg
# [7] = mice, oral extract 8, 125, 250 mg/kg, 1, 6, 24, 48 h
compound,measurement,setting,value
O=c1cc(-c2ccc(O)cc2)oc2cc(O)cc(O)c12 [Apigenin],T1/2,[1]; reported in rats,1.8 to 4.2 h
same,AUC,in vivo; [3],2390 ± 210 ng·h/mL
same,AUC(0-t),in vivo; [3],2120 ng·h/mL
same,Clearance,in vivo; [3],13.7 mL/min/kg
same,Cmax,in vivo; [3],850 ± 70 ng/mL
same,T1/2,in vivo; [3],greater than 5.6 h
same,Vd,in vivo; [3],3.4 ± 0.5 L/kg
same,half-life,"in vivo; female, CD-1, mouse, in vivo, po, 8 mg/kg, T1/2",5.6 ± 0.3 h
same,Tmax,"in vivo; female, CD-1, mouse, in vivo, po, 8 mg/kg, Tmax",1.5 ± 0.3 h
same,"serum concentration, change with dose and time",in vivo; [4],significantly increased with the 125 mg/kg doses at 24 and 48 h
"CC(C)(O)/C=C/C(=O)[C@](C)(O)[C@H]1[C@H](O)C[C@@]2(C)[C@@H]3CC=C4[C@@H](C=C(O)C(=O)C4(C)C)[C@]3(C)C(=O)C[C@]12C [CuI, cucurbitacin I]","liver concentration, change with dose and time",in vivo; [5],no significant variations
same,liver concentration,"in vivo; mice, liver, oral extract 125 and 250 mg/kg",> 20 µg/mg
same,"serum concentration, change with dose and time",in vivo; [4],concentrations remained near the limit of quantification
"CC(=O)OC(C)(C)/C=C/C(=O)[C@](C)(O)[C@H]1[C@H](O)C[C@@]2(C)[C@@H]3CC=C4[C@@H](C=C(O)C(=O)C4(C)C)[C@]3(C)C(=O)C[C@]12C [Cucurbitacin E, cucurbitacin E]",Cmax,"in vivo; female, CD-1, mouse, in vivo, po, 8 mg/kg, read-out: Cmax",420 ng/mL
same,Tmax,"in vivo; female, CD-1, mouse, in vivo, mice, plasma, oral extract 8 mg/kg, Table S1, unit inferred, read-out: Tmax",2.5 ± 0.3 h
same,AUC(0-t),"in vivo; female, CD-1, mouse, in vivo, mice, plasma, oral extract 8 mg/kg, read-out: AUC0−t",1450 ± 110 ng·h/mL
same,AUC,"in vivo; female, CD-1, mouse, in vivo, mice, plasma, oral extract 8 mg/kg, read-out: AUC0 ∞",1800 ng·h/mL
same,half-life,"in vivo; female, CD-1, mouse, in vivo, mice, plasma, oral extract 8 mg/kg, read-out: T1/2 (converted)",8.4 ± 1.2 h
same,"liver concentration, change with dose and time",in vivo; [5],no significant variations
same,Clearance,in vivo; [6],10.8 mL/min/kg
same,Vd,in vivo; [6],4.8 L/kg
same,"urine concentration, change with dose and time",in vivo; [7],clear increase under the 8 mg/kg treatment
same,peak plasma concentration,[2]; at 2 h post-dose,approximately 0.009 µg/mL
"O=c1cc(-c2ccc(O)cc2)oc2cc(O[C@@H]3O[C@H](CO)[C@@H](O)[C@H](O)[C@H]3O)cc(O)c12 [apigenin-7-O-β-D-glucoside, reference compound]",AUC0−t,"[1]; rat, in vivo, iv",680 to 1560 ng·h/mL
O=C1C[C@@H](c2ccc(O)cc2)Oc2cc(O)cc(O)c21 [Naringenin],"liver concentration, change with dose and time","in vivo; female, CD-1, mouse, in vivo",significantly decreased after 24–48 h with the 8 mg/kg dose
C[C@@H]1O[C@@H](OC[C@H]2O[C@@H](Oc3c(-c4ccc(O)c(O)c4)oc4cc(O)cc(O)c4c3=O)[C@H](O)[C@@H](O)[C@@H]2O)[C@H](O)[C@H](O)[C@H]1O [Rutin],"serum concentration, change with dose and time",in vivo; [4],marked decrease at the 250 mg/kg dose
"CC(=O)OC(C)(C)CCC(=O)[C@](C)(O)[C@H]1[C@H](O)C[C@@]2(C)[C@@H]3CC=C4[C@@H](C[C@H](O)[C@@H](O)C4(C)C)[C@]3(C)C(=O)C[C@]12C [CuIIA, cucurbitacin IIA]","liver concentration, change with dose and time",in vivo; [5],remained significant for up to 48 h with the 250 mg/kg treatment
same,serum Tmax,"in vivo; mice, serum, across all doses (8, 125, 250 mg/kg)",24 h
same,"serum concentration, change with dose and time",in vivo; [4],"transient decrease to near-zero concentrations at 6 h, followed by a marked increase at 24 h"
same,"urine concentration, change with dose and time",in vivo; [7],high concentrations were observed in urine
same,time of absorption (Tmax) in previous reports,[2],~ 20 min
COc1ccc([C@@H]2CC(=O)c3c(O)cc(O[C@@H]4O[C@H](CO[C@@H]5O[C@@H](C)[C@H](O)[C@@H](O)[C@H]5O)[C@@H](O)[C@H](O)[C@H]4O)cc3O2)cc1O [hesperidin],"urine concentration, change with dose and time",in vivo; [7],increased under the 8 mg/kg dose at 6 and 24 h
"CC(C)(O)/C=C/C(=O)[C@](C)(O)[C@H]1[C@H](O)C[C@@]2(C)[C@@H]3CC=C4[C@@H](C[C@H](O)C(=O)C4(C)C)[C@]3(C)C(=O)C[C@]12C [CuD, Cucurbitacin D]",Tmax,"in vivo; female, CD-1, mouse, in vivo, mice, serum/plasma, oral extract 125 mg/kg, read-out: Tmax",24 h
same,"liver concentration, change with dose and time",in vivo; [5],no significant variations
O=C(CCc1ccc(O)cc1)c1c(O)cc(O)cc1O [Phloretin],"liver concentration, change with dose and time","in vivo; female, CD-1, mouse, in vivo",increased significantly with a dose of 125 mg/kg at 6 and 48 h post-treatment
same,"serum concentration, change with dose and time","in vivo; female, CD-1, mouse, in vivo",decreased between 6 and 24 h at 125 mg/kg
same,Tmax,"in vivo; female, CD-1, mouse, plasma, po, 8 mg/kg, mice, plasma, oral extract 8 mg/kg, Table S1, unit inferred, read-out: Tmax",2 ± 0.4 h
same,half-life,"in vivo; female, CD-1, mouse, plasma, po, 8 mg/kg, mice, plasma, oral extract 8 mg/kg, read-out: T1/2 (converted)",4.2 ± 0.6 h
same,Tmax,"in vivo; female, CD-1, mouse, plasma, po, 8 mg/kg, mice, plasma, oral extract 8 mg/kg, read-out: Tmax",4.2 h
same,Cmax,"in vivo; female, CD-1, mouse, plasma, po, 8 mg/kg, read-out: Cmax",1120 ng/mL
same,AUC(0-t),"in vivo; female, CD-1, mouse, mice, plasma, oral extract 8 mg/kg, read-out: AUC0−t",3450 ± 310 ng·h/mL
same,AUC,"in vivo; female, CD-1, mouse, mice, plasma, oral extract 8 mg/kg, read-out: AUC0 ∞",6100 ng·h/mL
same,Clearance,in vivo; [6],13.7 mL/min/kg
same,Vd,in vivo; [6],0.95 L/kg
